Assay results: patent US20230077362A1 (CORTEVA AGRISCIENCE LLC, priority 2019, published 2023)

Legend:
[1] = system: Beet Armyworm (Spodoptera exigua) ("BAW"), second instar larvae; test: Bioassay on beet armyworm (BAW), 128-well diet tray assay; format: in vivo; settings: Spodoptera exigua, read-out: BAW rating
Method in brief: (§1)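 Second-instar larvae on diet in 128-well trays, covered and held at 25° C, 14:10 light-dark, for five to seven days. Percent mortality scored per well and averaged over eight wells; activity reported as a rating category.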

[2] = system: Cabbage Looper (Trichoplusia ni) ("CL"), second instar larvae; test: Bioassay on cabbage looper (CL), 128-well diet tray assay; format: in vivo; settings: Trichoplusia ni, read-out: CL rating
Method in brief: as §1

SMILES	pest or weed control at 50 µg/cm2 [1] [%]	pest or weed control at 50 µg/cm2 [2] [%]
Cc1ccc(C(C)C)c(N2C(=O)CS/C2=N\C(=O)Nc2ccc(-c3cn(-c4ccc(C(F)(F)F)cn4)cn3)cc2C)c1 [Compound J509, (Z)-1-(3-(2-Isopropyl-5-methylphenyl)-4-oxothiazolidin-2-ylidene)-3-(2-methyl-4-(1-(5-(trifluoromethyl)pyridin-2-yl)-1H-imidazol-4-yl)phenyl)urea]	50 to 100	50 to 100
Cc1ccc(COCC(F)(F)F)c(N2C(=O)CS/C2=N\C(=O)Nc2ccc(-c3cn(-c4ccc(C(F)(F)F)cn4)cn3)cc2C)c1 [Compound J511, (Z)-1-(3-(5-Methyl-2-((2,2,2-trifluoroethoxy)methyl)phenyl)-4-oxothiazolidin-2-ylidene)-3-(2-methyl-4-(1-(5-(trifluoromethyl)pyridin-2-yl)-1H-imidazol-4-yl)phenyl)urea]	50 to 100	50 to 100
Cc1ccc(OCCC(F)(F)F)c(N2C(=O)CS/C2=N\C(=O)Nc2ccc(-c3cn(-c4ccc(C(F)(F)F)cn4)cn3)cc2C)c1 [Compound J512, (Z)-1-(3-(5-Methyl-2-(3,3,3-trifluoropropoxy)phenyl)-4-oxothiazolidin-2-ylidene)-3-(2-methyl-4-(1-(5-(trifluoromethyl)pyridin-2-yl)-1H-imidazol-4-yl)phenyl)urea]	50 to 100	50 to 100
COC(C)c1ccc(C)cc1N1C(=O)CS/C1=N\C(=O)Nc1ccc(-c2cn(-c3ccc(C(F)(F)F)cc3)cn2)cc1 (centres unmarked) [Compound J513, (Z)-1-(3-(2-(1-Methoxyethyl)-5-methylphenyl)-4-oxothiazolidin-2-ylidene)-3-(4-(1-(4-(trifluoromethyl)phenyl)-1H-imidazol-4-yl)phenyl)urea]	50 to 100	50 to 100
Cc1ccc(C(C)C)c(N2C(=O)CS/C2=N\C(=O)Nc2ccc(-c3cn(-c4ccc(C(F)(F)F)cc4)cn3)cc2)c1 [Compound J514, (Z)-1-(3-(2-Isopropyl-5-methylphenyl)-4-oxothiazolidin-2-ylidene)-3-(4-(1-(4-(trifluoromethyl)phenyl)-1H-imidazol-4-yl)phenyl)urea]	50 to 100	50 to 100
CC(C)c1ccc(N(C)C)cc1N1C(=O)CS/C1=N\C(=O)Nc1ccc(-c2cn(-c3ccc(C(F)(F)F)cc3)cn2)cc1 [Compound J515, (Z)-1-(3-(5-(Dimethylamino)-2-isopropylphenyl)-4-oxothiazolidin-2-ylidene)-3-(4-(1-(4-(trifluoromethyl)phenyl)-1H-imidazol-4-yl)phenyl)urea]	50 to 100	50 to 100
Cc1ccc(COCC(F)(F)F)c(N2C(=O)CS/C2=N\C(=O)Nc2ccc(-c3cn(-c4ccc(C(F)(F)F)cc4)cn3)cc2)c1 [Compound J516, (Z)-1-(3-(5-Methyl-2-((2,2,2-trifluoroethoxy)methyl)phenyl)-4-oxothiazolidin-2-ylidene)-3-(4-(1-(4-(trifluoromethyl)phenyl)-1H-imidazol-4-yl)phenyl)urea]	50 to 100	50 to 100
Cc1ccc(OCCC(F)(F)F)c(N2C(=O)CS/C2=N\C(=O)Nc2ccc(-c3cn(-c4ccc(C(F)(F)F)cc4)cn3)cc2)c1 [Compound J517, (Z)-1-(3-(5-Methyl-2-(3,3,3-trifluoropropoxy)phenyl)-4-oxothiazolidin-2-ylidene)-3-(4-(1-(4-(trifluoromethyl)phenyl)-1H-imidazol-4-yl)phenyl)urea]	50 to 100	50 to 100
COC(C)c1ccc(C)cc1N1C(=O)CS/C1=N\C(=O)Nc1ccc(-c2cn(-c3ccc(C(F)(F)F)cn3)cn2)cc1 (centres unmarked) [Compound J518, (Z)-1-(3-(2-(1-Methoxyethyl)-5-methylphenyl)-4-oxothiazolidin-2-ylidene)-3-(4-(1-(5-(trifluoromethyl)pyridin-2-yl)-1H-imidazol-4-yl)phenyl)urea]	50 to 100	50 to 100
Cc1ccc(C(C)C)c(N2C(=O)CS/C2=N\C(=O)Nc2ccc(-c3cn(-c4ccc(C(F)(F)F)cn4)cn3)cc2)c1 [Compound J519, (Z)-1-(3-(2-Isopropyl-5-methylphenyl)-4-oxothiazolidin-2-ylidene)-3-(4-(1-(5-(trifluoromethyl)pyridin-2-yl)-1H-imidazol-4-yl)phenyl)urea]	50 to 100	50 to 100
CC(C)c1ccc(N(C)C)cc1N1C(=O)CS/C1=N\C(=O)Nc1ccc(-c2cn(-c3ccc(C(F)(F)F)cn3)cn2)cc1 [Compound J520, (Z)-1-(3-(5-(Dimethylamino)-2-isopropylphenyl)-4-oxothiazolidin-2-ylidene)-3-(4-(1-(5-(trifluoromethyl)pyridin-2-yl)-1H-imidazol-4-yl)phenyl)urea]	50 to 100	50 to 100
Cc1ccc(COCC(F)(F)F)c(N2C(=O)CS/C2=N\C(=O)Nc2ccc(-c3cn(-c4ccc(C(F)(F)F)cn4)cn3)cc2)c1 [Compound J521, (Z)-1-(3-(5-Methyl-2-((2,2,2-trifluoroethoxy)methyl)phenyl)-4-oxothiazolidin-2-ylidene)-3-(4-(1-(5-(trifluoromethyl)pyridin-2-yl)-1H-imidazol-4-yl)phenyl)urea]	50 to 100	50 to 100
Cc1ccc(OCCC(F)(F)F)c(N2C(=O)CS/C2=N\C(=O)Nc2ccc(-c3cn(-c4ccc(C(F)(F)F)cn4)cn3)cc2)c1 [Compound J522, (Z)-1-(3-(5-Methyl-2-(3,3,3-trifluoropropoxy)phenyl)-4-oxothiazolidin-2-ylidene)-3-(4-(1-(5-(trifluoromethyl)pyridin-2-yl)-1H-imidazol-4-yl)phenyl)urea]	50 to 100	50 to 100
Cc1ccc(C(C)C)c(N2C(=O)CS/C2=N\C(=O)Nc2ccc(-c3cn(-c4ccc(C(F)(F)F)cc4)cn3)cc2C)c1 [Compound J523, (Z)-1-(3-(2-Isopropyl-5-methylphenyl)-4-oxothiazolidin-2-ylidene)-3-(2-methyl-4-(1-(4-(trifluoromethyl)phenyl)-1H-imidazol-4-yl)phenyl)urea]	50 to 100	50 to 100
Cc1cc(-c2cn(-c3ccc(C(F)(F)F)cc3)cn2)ccc1NC(=O)/N=C1\SCC(=O)N1c1cc(N(C)C)ccc1C(C)C [Compound J524, (Z)-1-(3-(5-(Dimethylamino)-2-isopropylphenyl)-4-oxothiazolidin-2-ylidene)-3-(2-methyl-4-(1-(4-(trifluoromethyl)phenyl)-1H-imidazol-4-yl)phenyl)urea]	50 to 100	50 to 100
COC(C)c1ccc(C)cc1N1C(=O)CS/C1=N\C(=O)Nc1ccc(-c2cn(-c3ccc(C(F)(F)F)cc3)cn2)cc1C (centres unmarked) [Compound J525, (Z)-1-(3-(2-(1-Methoxyethyl)-5-methylphenyl)-4-oxothiazolidin-2-ylidene)-3-(2-methyl-4-(1-(4-(trifluoromethyl)phenyl)-1H-imidazol-4-yl)phenyl)urea]	50 to 100	50 to 100
